Measurements from patent US10919943B2, “Mutant proteins enabling agrochemical control of plant gene expression” (The Regents of the University of California, priority 2016, dated 2021).

Key:
pMANDI-UAS-GFP-LEAFY = assay: Mandipropamid induction of GFP-LEAFY in T1 leaf tissue, GFP fluorescence; assay type: in vivo, Arabidopsis; conditions: 10 μM mandipropamid, 24 hours; FIG. 15B
Description: To test the efficacy of our transcriptional circuit in planta, we constructed a 3 component system for inducing genes of interest using the mandipropamid mediated interaction of a BD-PYR1*/AD-HAB1* to drive genes of interest from a GAL4-responsive UAS (FIG. 15A). To do this we constructed a BD-PYR1*^-MANDI fusion protein and NLSSV40-VP64-HAB1*-N7 fusion protein and used these to drive gene expression from a synthetic UAS-minimal-35S promoter. To make the desired vector, the three required components were separately cloned into vectors that provided necessary elements (such as the Gal4 DNA binding domain, or 35S-promoter-nos-terminator cassettes). After this, the three components were combined into a plant binary transformation vector.
To combine all three components into a single vector, a 35S::NLS-VP64-HAB1*-N7-Nos-terminator cassette was PCR amplified from pVP64-HAB1*-N7 and cloned into pBD-PYR1* into its SacI site, upstream of the BD-PYR1* expression cassette, yielding pAD-BD. […]
Having developed a simple induction system, we tested it by examining the expression of the flowering regulator LEAFY. […] 24 hours after transfer, both tissues were examined using a GFP fluorescence dissecting scope and documented under identical camera and microscope settings (FIG. 15B).

[1] = tested on: 35S::GFP-cyt-HAB1* and 35S::nuc-PYR1*^-MANDI; assay: Mandipropamid control of protein nuclear localization, transient co-expression, confocal microscopy; assay type: in vivo, N. benthamiana; conditions: 50 μM mandipropamid, 24 hours; FIG. 13
Description: To test this idea, we created a nuclear localized version of PYR1*^-MANDI (SEQ ID NO:32) and a cytoplasmically localized GFP-HAB1*(SEQ ID NO:33), co-expressed the two components in N. benthamiana, and subsequently examined the localization of GFP-HAB1* in response to mandipropamid using confocal microscopy. To accomplish this, we cloned PYR1*^-MANDI into the yeast two hybrid vector pAD, generating a GAL4 activation domain fusion to PYR1*^-MANDI. The GAL4 activation domain present in pAD contains a synthetic SV40 nuclear localization signal (NLS) at its N-terminus. […]
To characterize these components, 35S::GFP-cyt-HAB1* and 35S::nuc-PYR1*^-MANDI were transiently co-expressed in N. benthamiana, as described above, and plants treated with a mock or mandipropamid solution (FIG. 13). […] The leaf tissue was scanned manually by epi-fluorescence to identify patches of GFP^+ cells and then observed by spinning disk confocal microscopy, collecting ˜10 micron deep sections that spanned the entire epidermal cell layer. […] Fluorescence imaging was done using a custom built spinning disk system (Solamere Technology, Inc) with a Yokagawa W1 spinning disk (Yokagawa), EM-CCD camera (Hamamatsu 9100c) and a Nikon Eclipse TE (Nikon) inverted stand. […]

In the case of `C#CCOc1ccc(CCNC(=O)C(OCC#C)c2ccc(Cl)cc2)cc1OC` (centres unmarked) [mandipropamid], the GFP-LEAFY induction (pMANDI-UAS-GFP-LEAFY) was “GFP-LEAFY induction in response to mandipropamid” and the “localization of GFP-cyt-HAB1*” value [1] was “predominantly nuclear localization pattern”.
